{"source": "patent US20250188079A1", "about": "“INHIBITING CYCLIC AMP-RESPONSIVE ELEMENT-BINDING PROTEIN (CREB)” (Forma Therapeutics, Inc., priority 2019, published 2025)", "data": [{"biological_target": "CBP (Homo sapiens (Human), UniProt Q92793)", "sequence (Q92793 1085-1192)": "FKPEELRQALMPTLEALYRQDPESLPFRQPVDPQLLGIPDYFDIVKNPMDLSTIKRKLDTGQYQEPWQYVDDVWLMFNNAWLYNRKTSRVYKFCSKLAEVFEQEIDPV", "experiment": "HTRF biochemical assay for CBP activity (TR-FRET, bromodomain)", "assay_type": "binding", "settings": "geometric mean, 10-point 3-fold dilution 33 μM to 1.7 nM, read-out: BROMO IC50 TRF TB CBP (μM gmean)", "outline": "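IC50 derives from a 4-parameter logistic fit of % inhibition, calculated from the 520/490 nm TR-FRET ratio against DMSO and no-enzyme controls. Final compound levels spanned 33 μM to 1.7 nM (10 points, 3-fold), with CBP and peptide ligand in Hepes pH 7.5/GSH/BGG/BSA/Triton buffer, incubated at room temperature for varying times.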", "units": {"IC50": "µM"}, "values": [{"compound": "COC(=O)N1CCc2ccc3c(nc([C@H]4CC[C@H](C(=O)O)CC4)n3[C@@H](C)Cn3cc(Cl)cn3)c2C1", "note": "[Compound 85]", "IC50": "0.001 to 0.01"}, {"compound": "COC(=O)N1CCc2ccc3c(nc([C@H]4CC[C@H](C(=O)O)CC4)n3[C@H]3CCc4ccccc4C3)c2C1", "note": "[Compound 315]", "IC50": "0.1 to 1"}, {"compound": "COC(=O)N1CCc2ccc3c(nc(C4CCCC4)n3C[C@@H](CC(=O)O)c3ccccc3)c2C1", "note": "(single isomer, unassigned) [Compound 34]", "IC50": "0.001 to 0.01"}, {"compound": "COC(=O)N1CCc2ccc3c(nc(C4CCCCC4)n3[C@@H](C)C[C@H]3CC[C@@H](C(=O)O)CC3)c2C1", "note": "[Compound 274]", "IC50": "0.01 to 0.1"}, {"compound": "COC(=O)N1CCc2ccc3c(nc(-c4cccc([C@](C)(O)C(=O)O)c4)n3[C@@H](C)Cc3ccccc3)c2C1", "note": "[Compound 184]", "IC50": "0.01 to 0.1"}, {"compound": "COC(=O)N1CCc2ccc3c(nc([C@H]4C[C@@H](C(=O)O)C4)n3[C@H](C)Cc3ccccc3C)c2C1", "note": "[Compound 340]", "IC50": "0.1 to 1"}, {"compound": "COC(=O)N1CCc2ccc3c(nc([C@H]4CCCOC4)n3C[C@@H](C(=O)O)c3ccccc3)c2C1", "note": "[Compound 61]", "IC50": "0.001 to 0.01"}, {"compound": "COC(=O)N1CCc2ccc3c(nc(N4CCC[C@H](C(=O)O)C4)n3C[C@H](C)c3ccccc3)c2C1", "note": "[Compound 306]", "IC50": "0.1 to 1"}, {"compound": "(3S)-4-[2-cyclohexyl-8-(methoxycarbonyl)-3H,6H,7H,8H,9H-imidazo[4,5-h]isoquinolin-3-yl]-3-(3-fluoro-5-methoxyphenyl)butanoic acid [Compound 10]", "IC50": "0.001 to 0.01"}, {"compound": "COC(=O)N1CCc2ccc3c(nc([C@H]4CC[C@H](C(=O)O)CC4)n3[C@@H](C)C[C@H]3CC[C@@H](OC(F)(F)F)CC3)c2C1", "note": "[Compound 226]", "IC50": "0.01 to 0.1"}, {"compound": "COC(=O)N1CCc2ccc3c(nc(C4CCCCC4)n3CC[C@@H]3CCC[C@@H](C(=O)O)C3)c2C1", "note": "[Compound 168]", "IC50": "0.001 to 0.01"}, {"compound": "COC(=O)N1CCc2ccc3c(nc([C@H]4CC[C@@H](C(=O)O)CC4)n3CC(NC(C)=O)c3ccccc3)c2C1", "note": "(some centres unmarked) [Compound 248]", "IC50": "0.01 to 0.1"}, {"compound": "(2R)-3-[2-cyclohexyl-8-(methoxycarbonyl)-3H,6H,7H,8H,9H-imidazo[4,5-h]isoquinolin-3-yl]-2-(5-fluoro-2-methoxyphenyl)propanoic acid [Compound 241]", "IC50": "0.01 to 0.1"}, {"compound": "COC(=O)N1CCc2ccc3c(nc(C4CCCCC4)n3C[C@@H](CC(=O)O)c3cc(F)cc(F)c3)c2C1", "note": "[Compound 76]", "IC50": "0.001 to 0.01"}, {"compound": "COC(=O)N1CCc2ccc3c(nc([C@H]4CC[C@H](C(=O)O)CC4)n3[C@H](CO)Cc3ccc(F)c(F)c3)c2C1", "note": "[Compound 288]", "IC50": "0.01 to 0.1"}, {"compound": "COC(=O)N1CCc2ccc3c(nc([C@H]4CC[C@H](C(=O)O)CC4)n3[C@@H](C)CC3CCOCC3)c2C1", "note": "[Compound 188]", "IC50": "0.01 to 0.1"}, {"compound": "COC(=O)N1CCc2ccc3c(nc([C@H]4CC[C@H](C(=O)O)CC4)n3[C@H](C)Cc3cccc(F)c3F)c2C1", "note": "[Compound 266]", "IC50": "0.01 to 0.1"}, {"compound": "COC(=O)N1CCc2ccc3c(nc(C4CCCCC4)n3C[C@H](O)c3cccc(C(=O)O)c3)c2C1", "note": "[Compound 173]", "IC50": "0.01 to 0.1"}, {"compound": "COC(=O)N1CCc2ccc3c(nc([C@H]4CC[C@H](C(=O)O)CC4)n3[C@H](C)[C@@H](O)c3ccccc3)c2C1", "note": "[Compound 146]", "IC50": "0.001 to 0.01"}, {"compound": "COC(=O)N1CCc2ccc3c(nc([C@H]4CC[C@@H](S(N)(=O)=O)CC4)n3[C@@H](C)Cc3ccccc3)c2C1", "note": "[Compound 166]", "IC50": "0.001 to 0.01"}, {"compound": "COC(=O)N1CCc2ccc3c(nc(C4CCCCC4)n3CCc3ccccc3)c2C1", "note": "[Compound 170]", "IC50": "0.001 to 0.01"}, {"compound": "COC(=O)N1CCc2c(C(=O)O)cc3c(nc(C4CCCCC4)n3[C@@H](C)Cc3ccccc3)c2C1", "note": "[Compound 67]", "IC50": "0.001 to 0.01"}, {"compound": "COC(=O)N1CCc2c(Cl)cc3c(nc([C@H]4CC[C@H](C(=O)O)CC4)n3CCc3ccccc3)c2C1", "note": "[Compound 154]", "IC50": "0.001 to 0.01"}, {"compound": "COC(=O)N1CCc2ccc3c(nc(C4CCCCC4)n3C[C@@H](C(=O)O)c3cc(F)c(C)cc3OC)c2C1", "note": "(single isomer, unassigned) [Compound 278]", "IC50": "0.01 to 0.1"}, {"compound": "COC(=O)N1CCc2ccc3c(nc(N4CCC(C(=O)O)CC4)n3[C@@H](C)Cn3cc(Cl)cn3)c2C1", "note": "[Compound 73]", "IC50": "0.001 to 0.01"}, {"compound": "COC(=O)N1CCc2ccc3c(nc([C@H]4CC[C@H](C(=O)O)CC4)n3[C@@H]3CCc4ccccc4C3)c2C1", "note": "[Compound 335]", "IC50": "0.1 to 1"}, {"compound": "COC(=O)N1CCc2ccc3c(nc([C@H]4CC[C@H](C(=O)O)CC4)n3[C@@H](C)C(F)(F)c3ccccc3)c2C1", "note": "[Compound 338]", "IC50": "0.1 to 1"}, {"compound": "COC(=O)N1CCc2ccc3c(nc(C4CCCCC4)n3CC[C@H]3CCCC[C@H]3C(=O)O)c2C1", "note": "[Compound 193]", "IC50": "0.01 to 0.1"}, {"compound": "COC(=O)N1CCc2ccc3c(nc([C@H]4CC[C@H](C(=O)O)CC4)n3[C@@H](CO)Cc3ccc(F)c(F)c3)c2C1", "note": "[Compound 74]", "IC50": "0.001 to 0.01"}, {"compound": "COC(=O)N1CCc2ccc3c(nc([C@H]4CC[C@H](C(=O)O)CC4)n3[C@@H](CO)Cc3ccccc3)c2C1", "note": "[Compound 151]", "IC50": "0.001 to 0.01"}, {"compound": "COC(=O)N1Cc2c(ccc3c2nc(C2CCCCC2)n3CCc2ccccc2)CC1C", "note": "(centres unmarked) [Compound 238]", "IC50": "0.01 to 0.1"}, {"compound": "COC(=O)N1CCc2ccc3c(nc([C@H]4CC[C@H](C(=O)O)CC4)n3[C@H](C)Cc3ccc(F)c(F)c3)c2C1", "note": "[Compound 40]", "IC50": "0.001 to 0.01"}, {"compound": "COC(=O)N1CCc2ccc3c(nc([C@H]4CC[C@H](C(=O)O)CC4)n3[C@@H](C)Cc3ccc(F)c(OC)c3)c2C1", "note": "[Compound 43]", "IC50": "0.001 to 0.01"}, {"compound": "COC(=O)N1CCc2ccc3c(nc([C@H]4CC[C@@H](S(=O)(=O)NC(C)=O)CC4)n3[C@H](C)Cc3ccccc3)c2C1", "note": "[Compound 162]", "IC50": "0.001 to 0.01"}, {"compound": "COC(=O)N1CCc2ccc3c(nc([C@H]4CC[C@H](C(=O)O)CC4)n3[C@H](C)C[C@]3(C)CC[C@@H](OC)CC3)c2C1", "note": "[Compound 267]", "IC50": "0.01 to 0.1"}, {"compound": "(1S,3S)-3-[3-[(2R)-1-(3,4-difluorophenyl)propan-2-yl]-8-(methoxycarbonyl)-3H,6H,7H,8H,9H-imidazo[4,5-h]isoquinolin-2-yl]cyclohexane-1-carboxylic acid [Compound 31]", "IC50": "0.001 to 0.01"}, {"compound": "COC(=O)N1CCc2ccc3c(nc(C4CCCCC4)n3CC[C@H]3CC[C@H](C(=O)O)CC3)c2C1", "note": "[Compound 243]", "IC50": "0.01 to 0.1"}, {"compound": "COC(=O)N1CCc2ccc3c(nc([C@H]4CC[C@](C)(C(=O)O)CC4)n3[C@H](CO)Cc3ccccc3)c2C1", "note": "[Compound 117]", "IC50": "0.001 to 0.01"}, {"compound": "COC(=O)N1CCc2ccc3c(nc(C4CCCCC4)n3C[C@@](C)(C(=O)O)c3ccccc3)c2C1", "note": "[Compound 150]", "IC50": "0.001 to 0.01"}, {"compound": "COC(=O)N1CCc2ccc3c(nc(C4CCCCC4)n3C[C@H](CC(=O)O)c3cc(F)cc(OC)c3)c2C1", "note": "[Compound 36]", "IC50": "0.001 to 0.01"}, {"compound": "COC(=O)N1CCc2ccc3c(nc(C4CCCCC4)n3C[C@@H](C(=O)O)C3CCCCC3)c2C1", "note": "[Compound 281]", "IC50": "0.01 to 0.1"}, {"compound": "COC(=O)N1CCc2ccc3c(nc([C@H]4CC[C@H](C(=O)O)CC4)n3[C@H](C)C[C@@H]3CCCCO3)c2C1", "note": "[Compound 302]", "IC50": "0.1 to 1"}, {"compound": "COC(=O)N1CCc2ccc3c(nc(N4CC[C@H](C(=O)O)C4)n3[C@@H](C)Cc3ccccc3)c2C1", "note": "[Compound 222]", "IC50": "0.01 to 0.1"}, {"compound": "COC(=O)N1CCc2ccc3c(nc([C@H]4C[C@@H](C(=O)O)C4)n3[C@@H](C)Cc3ccccc3C)c2C1", "note": "[Compound 130]", "IC50": "0.001 to 0.01"}, {"compound": "COC[C@H](Cc1ccccc1)n1c2ccc3c(c2nc1[C@H]1CC[C@H](C(=O)O)CC1)CN(C(=O)OC)CC3", "note": "[Compound 299]", "IC50": "0.1 to 1"}, {"compound": "COC(=O)N1CCc2ccc3c(nc([C@H]4CC[C@H](C(=O)O)CC4)n3[C@H](C)CC3CCOCC3)c2C1", "note": "[Compound 265]", "IC50": "0.01 to 0.1"}, {"compound": "COC(=O)N1CCc2ccc3c(nc([C@H]4CC[C@H](C(=O)O)CC4)n3[C@@H](C)Cc3ccc(C)cc3)c2C1", "note": "[Compound 93]", "IC50": "0.001 to 0.01"}]}]}
